Converted amounts (≈) assume the structure as drawn. The source made the active and inactive calls. No cut-off for these calls is given here.

Test [1] has as its system Mycobacterium tuberculosis. Kind of test: Antibacterial activity against Mycobacterium tuberculosis H37Rv in GAS medium by microplate alamar blue assay. The following applies: for MIC: Mycobacterium tuberculosis, H37Rv. Type of test: functional.
Test [2] has as its system Mycobacterium tuberculosis. Kind of test: Antibacterial activity against Mycobacterium tuberculosis H37Rv in 7H12 medium by microplate alamar blue assay. The conditions noted are these: for MIC: Mycobacterium tuberculosis, H37Rv. The test is classed as functional. A general note: Resazurin is reduced to fluorescent resorufin, in cell work by metabolically active cells.

For test [3], the target named is T1, Decaprenylphosphoryl-beta-D-ribose oxidase (Mycobacterium tuberculosis (strain ATCC 25618 / H37Rv)) (UniProt P9WJF1).
T1 sequence (whole entry): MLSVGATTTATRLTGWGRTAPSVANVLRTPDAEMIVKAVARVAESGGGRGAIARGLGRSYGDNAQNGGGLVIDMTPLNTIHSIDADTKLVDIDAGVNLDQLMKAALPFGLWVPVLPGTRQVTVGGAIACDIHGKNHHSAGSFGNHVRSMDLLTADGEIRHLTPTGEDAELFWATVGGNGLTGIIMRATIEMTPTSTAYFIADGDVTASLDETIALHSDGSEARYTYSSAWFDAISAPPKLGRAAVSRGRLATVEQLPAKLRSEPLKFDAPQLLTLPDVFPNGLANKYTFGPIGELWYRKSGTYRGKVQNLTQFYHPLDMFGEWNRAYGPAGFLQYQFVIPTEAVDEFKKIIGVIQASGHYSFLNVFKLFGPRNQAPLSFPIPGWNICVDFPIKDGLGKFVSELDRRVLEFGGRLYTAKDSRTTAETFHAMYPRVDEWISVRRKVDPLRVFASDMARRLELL
Kind of test: Irreversible inhibition of recombinant Mycobacterium tuberculosis H37Rv DprE1 using FPR as substrate assessed as residual enzymatic activity preincubated for 10 mins followed by substrate addition by fluorescence assay.

In test [4] the target is T2, Decaprenylphosphoryl-beta-D-ribose oxidase (Mycobacterium smegmatis (strain ATCC 700084 / mc(2)155)) (UniProt A0R607).
T2 sequence (whole entry): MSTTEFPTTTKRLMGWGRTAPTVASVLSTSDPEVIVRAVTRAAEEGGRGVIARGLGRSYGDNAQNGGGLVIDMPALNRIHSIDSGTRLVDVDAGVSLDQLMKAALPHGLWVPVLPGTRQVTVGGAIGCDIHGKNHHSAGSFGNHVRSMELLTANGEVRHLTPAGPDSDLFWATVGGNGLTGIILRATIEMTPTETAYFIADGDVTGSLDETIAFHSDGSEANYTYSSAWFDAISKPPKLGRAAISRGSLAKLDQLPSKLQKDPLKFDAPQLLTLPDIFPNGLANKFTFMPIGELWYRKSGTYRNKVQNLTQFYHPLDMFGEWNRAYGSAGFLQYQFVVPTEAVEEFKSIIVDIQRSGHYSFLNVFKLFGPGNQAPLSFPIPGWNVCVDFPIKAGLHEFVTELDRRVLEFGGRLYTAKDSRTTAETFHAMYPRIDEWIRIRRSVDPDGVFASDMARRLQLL
Kind of test: Inhibition of DprE1 in P-14C-RPP-labelled Mycobacterium smegmatis MC2 155 cell membranes assessed as supression of conversion of decaprenylphosphoryl ribose to decaprenylphosphoryl arabinose after 1 hr by TLC analysis. Type of test: cell-based. The following applies: Mycolicibacterium smegmatis MC2 155.

Test [5] has as its system Mycobacterium tuberculosis. Kind of test: Antibacterial activity against Mycobacterium tuberculosis H37Rv in GAS medium at >1uM by microplate alamar blue assay. Type of test: functional.
Test [6] concerns Mycobacterium tuberculosis. Kind of test: Antibacterial activity against Mycobacterium tuberculosis H37Rv in 7H12 medium at >1uM by microplate alamar blue assay. The test is classed as functional.
Test [7] addresses T3, Decaprenylphosphoryl-beta-D-ribose oxidase (Mycobacterium tuberculosis (strain ATCC 25618 / H37Rv), UniProt P9WJF1).
T3 sequence (P9WJF1 whole entry): T1 sequence (whole entry)
Kind of test: Inhibition of recombinant Mycobacterium tuberculosis H37Rv DprE1 using FPR as substrate assessed as residual enzymatic activity preincubated for 10 mins followed by substrate addition by fluorescence assay.

Test [8] deals with T1, Decaprenylphosphoryl-beta-D-ribose oxidase (Mycobacterium tuberculosis (strain ATCC 25618 / H37Rv)). Kind of test: Reversible inhibition of recombinant Mycobacterium tuberculosis H37Rv DprE1 using FPR as substrate assessed as residual enzymatic activity preincubated for 10 mins followed by substrate addition by fluorescence assay.

Take `C[C@H]1COC2(CCN(c3nc(=O)c4cc(C(F)(F)F)cc(-n5cc(CN(C)C)nn5)c4s3)CC2)O1`: the MIC – broadly, the least concentration at which growth counts as inhibited – in test [1] worked out at 0.95 µM (≈ 0.485 µg/mL); in test [2] it was 0.87 µM (≈ 0.444 µg/mL).
Turning to `C[C@H]1COC2(CCN(c3nc(=O)c4cc(C(F)(F)F)cc([N+](=O)[O-])c4s3)CC2)O1` [BTZ-043], the inhibition entry in test [3] and in test [4] was “Active” throughout. Also, the minimal inhibitory concentration (MIC) in test [1] and in test [2] was less than 0.004 µM in each case.
As to `CCOC(=O)c1cn(-c2cc(C(F)(F)F)cc3c(=O)nc(N4CCC5(CC4)OC[C@H](C)O5)sc23)nn1`, the “growth inhibition (GI)” value in test [5] amounted to 34%. Besides, the figures for the MIC in test [1] and in test [2] were more than 1 µM and 0.93 µM (≈ 0.489 µg/mL), respectively.
For `C[C@H]1COC2(CCN(c3nc(=O)c4cc(C(F)(F)F)cc(N)c4s3)CC2)O1`, the “growth inhibition (GI)” value in test [5] is listed as 0%; in test [6], 87%. The “inhibition (INH)” value in test [1] is reported as 10%; in test [2], 12%. Further, the MIC in test [1] and in test [2] was more than 10 µM throughout.
With `C[C@H]1COC2(CCN(c3nc(=O)c4cc(C(F)(F)F)cc(N=[N+]=[N-])c4s3)CC2)O1`, the IC50 – broadly, the concentration needed to halve the response being measured – in test [7] was 9.6 µM. In addition, the MIC is 0.46 µM (≈ 0.197 µg/mL) in test [1] and 0.47 µM (≈ 0.201 µg/mL) in test [2]. In addition, the inhibition entry in test [8] is “Active”. Besides, in test [4], the inhibition result was “inactive”.
Take `C[C@H]1COC2(CCN(c3nc(=O)c4cc(C(F)(F)F)ccc4s3)CC2)O1`: the minimum inhibitory concentration (MIC) was 8.68 µM (≈ 3.35 µg/mL) in test [1] and more than 100 µM in test [2]. Also, the inhibition entry in test [4] is “inactive”.
For the compound `CO[C@H]1/C=C/O[C@@]2(C)Oc3c(C)c(O)c4c(O)c(c(/C=N/N5CCN(C)CC5)c(O)c4c3C2=O)NC(=O)/C(C)=C\C=C\[C@H](C)[C@H](O)[C@@H](C)[C@@H](O)[C@@H](C)[C@H](OC(C)=O)[C@@H]1C` [RIFAMPIN], the figures for the MIC in test [1] and in test [2] were 0.04 µM (≈ 0.0329 µg/mL) and 0.05 µM (≈ 0.0411 µg/mL), respectively.
For the compound `C[C@H]1COC2(CCN(c3nc(=O)c4cc(C(F)(F)F)cc(-n5cc(Cc6ccccc6)nn5)c4s3)CC2)O1`, the “growth inhibition (GI)” value in test [5] and in test [6] was 0% each time. Besides, the minimum inhibitory concentration (MIC) in test [1] was 9.27 µM (≈ 5.04 µg/mL); in test [2] it was 9.9 µM (≈ 5.38 µg/mL).

The values are drawn from ChEMBL document CHEMBL3804812, “Design, Syntheses, and Anti-TB Activity of 1,3-Benzothiazinone Azide and Click Chemistry Products Inspired by BTZ043” (ACS Med Chem Lett, 2016).
